The assay concerns HFL1 cells. Briefly: HFL1 cell proliferation inhibition (CCK-8, optical density at 450 nm). Type of assay: cell-based. Conditions: for IC50: Homo sapiens, 48 hours after dosing, CCK-8, cell proliferation inhibition; for The ratio with PFD: IC50 ratio of Pirfenidone to the compound, 48 hours. As to the method: Example 69: Cell Experiment Method
HFL1 cells in exponential growth phase were cultured, cells were digested and collected using traditional subculturing when reaching 85-95% fusion and the cells were counted to adjust, the cell density to 5×10^4 cells per milliliter, then the cells were seed into 96-well plates, 100 μl/well and incubated in a 5% CO2 incubator at 37° C.
The supernatant of the 96-well plates was removed at 24 hours after the cells adhering to the wall and solutions containing the above compounds with different concentration were added to the wells, with 100 μl/well (the concentration of each compounds are in the range of 0.003-8 mmol/L) each concentration in 3 replicates, and the cells were cultured 48 hours after dosing.
3. Testing the Optical Density
10 μl of CCK-8 solution was added to each well 48 hours after dosing, and incubated for 2 hours. The optical density (A) of each well was determined using a microplate reader at 450 nm wavelength. The cell proliferation inhibition ratio of each compound were calculated based on A using the formula of: cell proliferation inhibition ratio(inhibition ratio, IR)=(1−value of experimental group (Ai)/value of control group (Ao))×100%, in which IC50 of each compound at 48 hours was calculated by data processing software, wherein the control group was the blank group.

For `Cc1cc(=O)n(-c2ccc(N3CCC(Cc4ccc(Cl)c(F)c4)CC3)c(Cl)c2)c(C)n1` [Example 16, 3-(3-chloro-4-(4-(4-chloro-3-fluorobenzyl)piperidin-1-yl)phenyl)-2,6-dimethylpyrimidin-4(3H)-one], the IC50 (in general, the concentration that inhibits the measured activity by half) stood at 70 µM and the “The ratio with PFD” value is 139 multiple.

On to `Cc1cc(=O)n(-c2ccc(N3CCC(Cc4ccc5ccccc5c4)CC3)c(Cl)c2)c(C)n1` [Example 10, 3-(3-chloro-4-(4-(naphthalen-2-ylmethyl)piperidin-1-yl)phenyl)-2,6-dimethylpyrimidin-4(3H)-one], for which the IC50 turned out to be 78 µM and the “The ratio with PFD” value is given as 111 multiple.

For `Cc1cc(=O)n(-c2ccc(N3CCC(Cc4cc(F)c(F)c(F)c4)CC3)c(Cl)c2)c(C)n1` [Example 17, 3-(3-chloro-4-(4-(3,4,5-trifluorobenzyl)piperidin-1-yl)phenyl)-2,6-dimethylpyrimidin-4(3H)-one], the 50% inhibitory concentration (IC50) was 70 µM and the “The ratio with PFD” value is given as 137 multiple.

Regarding `Cc1cc(=O)n(-c2ccc(N3CCC(Cc4cccc(C(F)(F)F)c4)CC3)c(Cl)c2)c(C)n1` [Example 14, 3-(3-chloro-4-(4-(3-(trifluoromethyl)benzyl)piperidin-1-yl)phenyl)-2,6-dimethylpyrimidin-4(3H)-one], the concentration for half-maximal inhibition (IC50) stood at 60 µM and the “The ratio with PFD” value was 139 multiple.

In the case of `Cc1cc(=O)n(-c2ccc(N3CCC(COc4cccc(C(F)(F)F)c4)CC3)c(Cl)c2)c(C)n1` [Example 53, 3-(3-chloro-4-(4-((3-(trifluoromethyl)phenoxy)methyl)piperidin-1-yl)phenyl)-2,6-dimethylpyrimidin-4(3H)-one], half-maximal inhibition (IC50) required 38 µM and the “The ratio with PFD” value is 602 multiple.

Regarding `Cc1cc(=O)n(-c2ccc(N3CCC(Oc4cccc(N)c4)CC3)c(Cl)c2)c(C)n1` [Example 34, 3-(4-(4-(3-aminophenoxy)piperidin-1-yl)-3-chlorophenyl)-2,6-dimethylpyrimidin-4(3H)-one], the half-maximal inhibitory concentration (IC50) is 90 µM and the “The ratio with PFD” value came out at 154 multiple.

`Cc1cc(=O)n(-c2ccc(N3CCC(Cc4ccccc4-c4ccccc4)CC3)c(Cl)c2)c(C)n1` [Example 13, 3-(4-(4-([1,1′-biphenyl]-2-ylmethyl)piperidin-1-yl)-3-chlorophenyl)-2,6-dimethylpyrimidin-4(3H)-one]: the IC50 amounted to 70 µM and the “The ratio with PFD” value is reported as 118 multiple.

In the case of `Cc1cc(=O)n(-c2ccc(N3CCC(Cc4cc(F)c(F)c5cccnc45)CC3)c(Cl)c2)c(C)n1` [Example 57, 3-(3-chloro-4-(4-((5,6-difluoroquinolin-8-yl)methyl)piperidin-1-yl)phenyl)-2,6-dimethylpyrimidin-4(3H)-one], the 50% inhibitory concentration (IC50) is 60 µM and the “The ratio with PFD” value was 168 multiple.

With `Cc1cc(=O)n(-c2ccc(N3CCC(COc4cccc(F)c4)CC3)c(Cl)c2)c(C)n1` [Example 30, 3-(3-chloro-4-(4-((3-fluorophenoxy)methyl)piperidin-1-yl)phenyl)-2,6-dimethylpyrimidin-4(3H)-one], 60 µM corresponded to half-maximal inhibition (IC50) and the “The ratio with PFD” value was 136 multiple.

Take `Cc1cc(=O)n(-c2ccc(N3CCC(Cc4cc(F)cc5cccnc45)CC3)c(Cl)c2)c(C)n1` [Example 54, 3-(3-chloro-4-(4-((6-fluoroquinolin-8-yl)methyl)piperidin-1-yl)phenyl)-2,6-dimethylpyrimidin-4(3H)-one]: the half-maximal inhibitory concentration (IC50) amounted to 40 µM and the “The ratio with PFD” value is given as 209 multiple.

With `Cc1cc(=O)n(-c2ccc(N3CCC(Cc4ccc(F)cc4)CC3)c(F)c2)c(C)n1` [Example 25, 3-(3-fluoro-4-(4-(4-fluorobenzyl)piperidin-1-yl)phenyl)-2,6-dimethylpyrimidin-4(3H)-one], it took 100 µM to reach half-maximal inhibition (IC50) and the “The ratio with PFD” value is recorded as 107 multiple.

With `COc1cccc(CC2CCN(c3ccc(-n4c(C)nc(C)cc4=O)cc3Cl)CC2)c1` [Example 12, 3-(3-chloro-4-(4-(3-methoxybenzyl)piperidin-1-yl)phenyl)-2,6-dimethylpyrimidin-4(3H)-one], half-maximal inhibition (IC50) required 80 µM and the “The ratio with PFD” value was 112 multiple.

For the compound `Cc1cc(=O)n(-c2ccc(N3CCC(Cc4cccc(Cl)c4)CC3)c(Cl)c2)c(C)n1` [Example 19, 3-(3-chloro-4-(4-(3-chlorobenzyl)piperidin-1-yl)phenyl)-2,6-dimethylpyrimidin-4(3H)-one], the half-inhibitory concentration (IC50) was 70 µM and the “The ratio with PFD” value is 137 multiple.

Regarding `Cc1cc(=O)n(-c2ccc(N3CCC(Cc4ccccc4Cl)CC3)c(Cl)c2)c(C)n1` [Example 15, 3-(3-chloro-4-(4-(2-chlorobenzyl)piperidin-1-yl)phenyl)-2,6-dimethylpyrimidin-4(3H)-one], the IC50 amounted to 65 µM and the “The ratio with PFD” value was found to be 151 multiple.

`Cc1cc(=O)n(-c2ccc(N3CCC(Cc4ccc5cc(F)ccc5c4)CC3)c(Cl)c2)c(C)n1` [Example 51, 3-(3-chloro-4-(4-((6-fluoronaphthalen-2-yl)methyl)piperidin-1-yl)phenyl)-2,6-dimethylpyrimidin-4(3H)-one]: 37 µM corresponded to half-maximal inhibition (IC50) and the “The ratio with PFD” value is reported as 618 multiple.

With `C=CCc1ccccc1OC1CCN(c2ccc(-n3c(C)nc(C)cc3=O)cc2Cl)CC1` [Example 33, 3-(4-(4-(2-allylphenoxy)piperidin-1-yl)-3-chlorophenyl)-2,6-dimethylpyrimidin-4(3H)-one], the IC50 was found to be 70 µM and the “The ratio with PFD” value was 149 multiple.

In the case of `Cc1cc(=O)n(-c2ccc(N3CCC(Cc4ccccc4F)CC3)c(Cl)c2)c(C)n1` [Example 6, 3-(3-chloro-4-(4-(2-fluorobenzyl)piperidin-1-yl)phenyl)-2,6-dimethylpyrimidin-4(3H)-one], the IC50 turned out to be 70 µM and the “The ratio with PFD” value is 121 multiple.

For the compound `Cc1cc(=O)n(-c2ccc(N3CCC(Cc4cccc5cccnc45)CC3)c(Cl)c2)c(C)n1` [Example 22, 3-(3-chloro-4-(4-(quinolin-8-ylmethyl)piperidin-1-yl)phenyl)-2,6-dimethylpyrimidin-4(3H)-one], the 50% inhibitory concentration (IC50) came to 90 µM and the “The ratio with PFD” value stood at 101 multiple.

Consider `Cc1cc(=O)n(-c2ccc(N3CCC(Cc4ccc(F)c5ccccc45)CC3)c(Cl)c2)c(C)n1` [Example 58, 3-(3-chloro-4-(4-((4-fluoronaphthalen-1-yl)methyl)piperidin-1-yl)phenyl)-2,6-dimethylpyrimidin-4(3H)-one], for which inhibition was half-maximal at 64 µM (IC50) and the “The ratio with PFD” value is recorded as 357 multiple.

Regarding `Cc1cc(=O)n(-c2ccc(N3CCC(Oc4ccccc4OC(F)(F)F)CC3)c(Cl)c2)c(C)n1` [Example 35, 3-(3-chloro-4-(4-(2-(trifluoromethoxy)phenoxy)piperidin-1-yl)phenyl)-2,6-dimethylpyrimidin-4(3H)-one], half-maximal inhibition (IC50) was put at 120 µM and the “The ratio with PFD” value came out at 119 multiple.

On to `Cc1cc(=O)n(-c2ccc(N3CCC(Cc4cccc5ccccc45)CC3)c(F)c2)c(C)n1` [Example 26, 3-(3-fluoro-4-(4-(naphthalen-1-ylmethyl)piperidin-1-yl)phenyl)-2,6-dimethylpyrimidin-4(3H)-one], for which the concentration for half-maximal inhibition (IC50) amounted to 60 µM and the “The ratio with PFD” value worked out at 137 multiple.

Turning to `Cc1cc(=O)n(-c2ccc(N3CCC(Oc4cccc(C#N)c4)CC3)c(Cl)c2)c(C)n1` [Example 29, 3-((1-(2-chloro-4-(2,4-dimethyl-6-oxopyrimidin-1 (6H)-yl)phenyl)piperidin-4-yl)oxy)benzonitrile], the half-maximal inhibitory concentration (IC50) is 90 µM and the “The ratio with PFD” value amounted to 107 multiple.

In the case of `Cc1cc(=O)n(-c2ccc(N3CCC(OCc4cccc(F)c4)CC3)c(Cl)c2)c(C)n1` [Example 32, 3-(3-chloro-4-(4-((3-fluorobenzyl)oxy)piperidin-1-yl)phenyl)-2,6-dimethylpyrimidin-4(3H)-one], the 50% inhibitory concentration (IC50) turned out to be 100 µM and the “The ratio with PFD” value is recorded as 107 multiple.

For `Cc1cc(=O)n(-c2ccc(N3CCC(Cc4ccc(F)c(F)c4)CC3)c(Cl)c2)c(C)n1` [Example 44, 3-(3-chloro-4-(4-(3,4-difluorobenzyl)piperidin-1-yl)phenyl)-2,6-dimethylpyrimidin-4(3H)-one], the half-maximal inhibitory concentration (IC50) amounted to 70 µM and the “The ratio with PFD” value came to 139 multiple.

In the case of `Cc1ccc(OC2CCN(c3ccc(-n4c(C)nc(C)cc4=O)cc3Cl)CC2)c(Cl)c1` [Example 37, 3-(3-chloro-4-(4-(2-chloro-4-methylphenoxy)piperidin-1-yl)phenyl)-2,6-dimethylpyrimidin-4(3H)-one], 80 µM corresponded to half-maximal inhibition (IC50) and the “The ratio with PFD” value is on record as 181 multiple.

Take `Cc1cc(=O)n(-c2ccc(N3CCC(Cc4ccc(C(F)(F)F)c5cccnc45)CC3)c(Cl)c2)c(C)n1` [Example 56, 3-(3-chloro-4-(4-((5-(trifluoromethyl)quinolin-8-yl)methyl)piperidin-1-yl)phenyl)-2,6-dimethylpyrimidin-4(3H)-one]: the concentration for half-maximal inhibition (IC50) was 40 µM and the “The ratio with PFD” value stood at 209 multiple.

Consider `Cc1cc(=O)n(-c2ccc(N3CCC(Cc4cccc5ccccc45)CC3)c(Cl)c2)c(C)n1` [Example 9, 3-(3-chloro-4-(4-(naphthalen-1-ylmethyl)piperidin-1-yl)phenyl)-2,6-dimethylpyrimidin-4(3H)-one], for which the half-inhibitory concentration (IC50) was determined as 80 µM and the “The ratio with PFD” value is 179 multiple.
